In US4897402A, “5-oxa, 5-thia, 5-aza HmG-CoA reductase inhibitors” (Merck & Co., Inc., priority 1988, dated 1990):

Molecular target: T1, HMG-CoA reductase (Rattus norvegicus, UniProt P51639)
T1 sequence (P51639 1-887): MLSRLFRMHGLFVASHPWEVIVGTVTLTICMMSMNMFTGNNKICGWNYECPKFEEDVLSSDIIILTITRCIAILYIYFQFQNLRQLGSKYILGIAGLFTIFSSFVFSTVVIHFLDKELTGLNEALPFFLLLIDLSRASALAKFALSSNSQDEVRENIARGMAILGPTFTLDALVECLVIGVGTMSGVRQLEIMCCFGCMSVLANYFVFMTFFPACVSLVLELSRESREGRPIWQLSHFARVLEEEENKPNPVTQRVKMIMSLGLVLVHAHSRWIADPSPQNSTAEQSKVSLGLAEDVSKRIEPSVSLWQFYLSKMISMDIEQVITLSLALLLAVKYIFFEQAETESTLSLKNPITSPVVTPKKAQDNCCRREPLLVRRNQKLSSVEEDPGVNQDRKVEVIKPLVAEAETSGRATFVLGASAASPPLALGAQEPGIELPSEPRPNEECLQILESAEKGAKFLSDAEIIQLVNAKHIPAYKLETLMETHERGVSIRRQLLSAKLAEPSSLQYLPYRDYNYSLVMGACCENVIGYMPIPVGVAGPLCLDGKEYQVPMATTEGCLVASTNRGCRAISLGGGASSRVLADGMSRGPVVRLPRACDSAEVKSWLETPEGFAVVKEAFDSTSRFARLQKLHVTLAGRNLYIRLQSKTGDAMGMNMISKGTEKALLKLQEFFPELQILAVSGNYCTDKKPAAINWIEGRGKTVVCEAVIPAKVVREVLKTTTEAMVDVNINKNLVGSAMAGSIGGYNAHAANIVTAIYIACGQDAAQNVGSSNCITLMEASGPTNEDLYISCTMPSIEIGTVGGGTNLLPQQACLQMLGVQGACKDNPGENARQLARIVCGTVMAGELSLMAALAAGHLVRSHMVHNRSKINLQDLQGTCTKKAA
Assay: intrinsic HMG-CoA reductase inhibition, in vitro protocol of J. Med. Chem., 28, p. 347-358 (1985)
Assay type: biochemical
Settings: IC50 of test compound compared with that of compactin (mevastatin) determined simultaneously; compactin assigned a value of 100
Description: The intrinsic HMG--CoA reductase inhibition activity of the claimed compounds is measured in the in vitro protocol published in J. Med. Chem., 28, p. 347-358 (1985).
For estimation of relative inhibitory potencies, compactin (i.e., mevastatin) was assigned a value of 100 and the IC50 value of the test compound was compared with that of compactin determined simultaneously in the published in vitro protocol.
Representative of the intrinsic HMG-CoA reductase inhibitory activities of the claimed compounds are the following potencies.

Row | Compound | Relative Potency
1 | CCC(C)(C)C(=O)O[C@H]1CC(C)(C)O[C@@H]2CC[C@H](C)[C@H](CC[C@@H]3C[C@@H](O)CC(=O)O3)[C@@H]12 [Compound 9, 6(R) [2-[8(S)-(2,2-dimethylbutyryloxy)-2(S)-methyl-5-oxa-6,6-dimethyl-1,2,3,4,4a(R),7,8,8a(R)-octahydronaphthyl-1(S)]ethyl]-4(R)-hydroxy-3,4,5,6-tetrahydro-2H-pyran-2-one] | 96
2 | CCC(C)(C)C(=O)O[C@H]1C[C@@](C)(CSc2ccccc2)O[C@@H]2CC[C@H](C)[C@H](CC[C@@H]3C[C@@H](O)CC(=O)O3)[C@@H]12 [Compound 10, 6(R)-[2-[8(S)-(2,2-dimethylbutyryloxy)-2(S)-methyl-5-oxa-6(S)-(phenylthiomethyl, methyl)-1,2,3,4,4a(R),7,8,8a(R)-octahydronaphthyl-1(S)]ethyl]4(R)-hydroxy 3,4,5,6-tetrahydro-2H-pyran-2-one] | 258
3 | CCC(C)(C)C(=O)O[C@H]1C[C@](C)(CSc2ccccc2)O[C@@H]2CC[C@H](C)[C@H](CC[C@@H]3C[C@@H](O)CC(=O)O3)[C@@H]12 [Compound 11, 6(R)-[2-[8(S)-(2,2-dimethylbutyryloxy)-2(S)-methyl-5-oxa-6(R)-(phenylthiomethyl, methyl)-1,2,3,4,4a(R),7,-8,8a(R)-octahydronaphthyl-1(S)]ethyl]-4-(R)-hydroxy 3,4,5,6-tetrahydro-2H-pyran-2-one] | 280
